Three compounds from the NIST ThermoML archive (doi:10.1021/je050013y) can be followed below.

± gives the expanded uncertainty stated by the source.

The nature of series [1]: refractive index (Na D-line) (dimensionless). The conditions noted are these: 293.15 K; 101.33 kPa; Liquid; Standard Abbe refractometry.
For series [2] the following is noted: 293.15 K; 101.33 kPa; Liquid.

What is called refractive index is the speed of light in vacuum divided by its phase velocity in the sample. As a reminder, the mass density is the mass of a sample divided by its volume. For `COC(C)(C)OC` [3,3-dimethyl-2,4-dioxapentane], the refractive index in series [1] worked out at 1.378 ± 0.0007. For the same compound, the mass density in series [2] turned out to be 840.2 ± 4.5 kg/m3.

As to `CC(C)=O` [acetone], in series [1], the refractive index is recorded as 1.3589 ± 0.0007. The mass density in series [2] was 784.6 ± 3 kg/m3.

In the case of `CO` [methanol], the refractive index in series [1] came to 1.3289 ± 0.0007. In addition, the mass density in series [2] was 786.5 ± 0.3 kg/m3.
